The source of these data is ChEMBL document CHEMBL1129314, “Synthesis of novel Se-substituted selenocysteine derivatives as potential kidney selective prodrugs of biologically active selenol compounds: evaluation of kinetics of beta-elimination reactions in rat renal cytosol” (J Med Chem, 1996).

Structures are written as SMILES.

The target of test [1] is Kynurenine--oxoglutarate transaminase 1 (Rattus norvegicus) (UniProt Q08415). Description: Ratio of Vmax and Km for elimination of conjugates by rat renal cytosol.
Test [2] has the same target. Kind of test: Specific activity against beta-elimination reaction by rat renal cytosolic beta-lyase after incubation with 0.2 mg of protein/mL for 10 min at 37 degree C using 1 mM substrate conc.

Kynurenine--oxoglutarate transaminase 1 (Rattus norvegicus), sequence (Q08415 whole entry, looked up): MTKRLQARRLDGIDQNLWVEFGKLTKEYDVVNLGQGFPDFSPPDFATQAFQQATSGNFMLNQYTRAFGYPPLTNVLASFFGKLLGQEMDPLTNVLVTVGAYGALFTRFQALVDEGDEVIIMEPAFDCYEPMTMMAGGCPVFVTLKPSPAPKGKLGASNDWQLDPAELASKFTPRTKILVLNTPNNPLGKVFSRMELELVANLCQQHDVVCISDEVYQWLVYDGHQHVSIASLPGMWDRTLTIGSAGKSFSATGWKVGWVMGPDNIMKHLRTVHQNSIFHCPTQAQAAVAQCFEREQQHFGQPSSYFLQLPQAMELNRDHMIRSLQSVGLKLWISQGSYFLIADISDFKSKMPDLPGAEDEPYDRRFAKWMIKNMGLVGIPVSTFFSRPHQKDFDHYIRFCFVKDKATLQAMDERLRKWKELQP

With `N[C@@H](C[Se]Cc1ccc(Cl)cc1)C(=O)O`, the Vmax / Km (nM min-1 mg-1 mM-1) in test [1] was 68.4. The Specific activity (nM min-1 mg-1) in test [2] stood at 11.6. On to `N[C@@H](CSc1ccccc1)C(=O)O`, for which, in test [2], the Specific activity (nM min-1 mg-1) was 0.2. With `CC[Se]C[C@H](N)C(=O)O`, the Vmax / Km (nM min-1 mg-1 mM-1) in test [1] was determined as 21.8. The compound further registered a Specific activity (nM min-1 mg-1) in test [2] of 11.

Take `C[Se]CC(N)C(=O)O` (single isomer, unassigned): the Vmax / Km (nM min-1 mg-1 mM-1) in test [1] stood at 13.2. Besides, the Specific activity (nM min-1 mg-1) in test [2] is 7.1. The like results for `COc1ccc([Se]C[C@H](N)C(=O)O)cc1` were, in that order, 14 and 4.3.

In the case of `N[C@@H](C[Se]Cc1ccc(Cl)c(Cl)c1)C(=O)O`, the Vmax / Km (nM min-1 mg-1 mM-1) in test [1] came out at 49. The compound further came in with a Specific activity (nM min-1 mg-1) in test [2] of 12.3.

`Cc1ccc([Se]C[C@H](N)C(=O)O)cc1` had a Specific activity (nM min-1 mg-1) in test [2] of 0.1. In turn, `N[C@@H](CSCc1ccccc1)C(=O)O` showed a Specific activity (nM min-1 mg-1) in test [2] of 0.2. Consider `Cc1ccc(C[Se]CC(N)C(=O)O)cc1` (single isomer, unassigned), for which the Vmax / Km (nM min-1 mg-1 mM-1) in test [1] is 70.2. This compound yielded a Specific activity (nM min-1 mg-1) in test [2] of 13.1. For the compound `N[C@@H](C[Se]c1ccc(Cl)cc1)C(=O)O`, the Vmax / Km (nM min-1 mg-1 mM-1) in test [1] came to 16.7. Further, in test [2], the Specific activity (nM min-1 mg-1) worked out at 5.2. The corresponding values for `N[C@@H](C[Se]Cc1ccccc1)C(=O)O` are 70 and 9.8. `CCC[Se]C[C@H](N)C(=O)O`: in test [2], the Specific activity (nM min-1 mg-1) was 3.3. On to `Cc1ccc([Se]CC(N)C(=O)O)cc1` (single isomer, unassigned), for which the Vmax / Km (nM min-1 mg-1 mM-1) in test [1] was determined as 16.7. The compound also showed a Specific activity (nM min-1 mg-1) in test [2] of 3.8. With `CCCC[Se]C[C@H](N)C(=O)O`, in test [1], the Vmax / Km (nM min-1 mg-1 mM-1) was determined as 1.8. The same compound registered a Specific activity (nM min-1 mg-1) in test [2] of 0.9. As for `Cc1ccc(CSC[C@H](N)C(=O)O)cc1`, the Specific activity (nM min-1 mg-1) in test [2] was 0.3. Consider `COc1ccc(C[Se]C[C@H](N)C(=O)O)cc1`, for which the Vmax / Km (nM min-1 mg-1 mM-1) in test [1] was determined as 44.9. Further, the Specific activity (nM min-1 mg-1) in test [2] worked out at 10.2. `COc1ccc(CSC[C@H](N)C(=O)O)cc1` had a Specific activity (nM min-1 mg-1) in test [2] of 0.1. The same measure, in the same setting: under `CCSC[C@H](N)C(=O)O` stands 0.1. On to `CC(C)[Se]C[C@H](N)C(=O)O`, for which, in test [1], the Vmax / Km (nM min-1 mg-1 mM-1) is 66.9. Further, the Specific activity (nM min-1 mg-1) in test [2] amounted to 14.9.

For `CCC[Se]CC(N)C(=O)O` (single isomer, unassigned), the Vmax / Km (nM min-1 mg-1 mM-1) in test [1] is 25.7. In test [2], this compound had a Specific activity (nM min-1 mg-1) of 8. With `N[C@@H](C[Se]c1ccccc1)C(=O)O`, the Vmax / Km (nM min-1 mg-1 mM-1) in test [1] was 44.2. Moreover, in test [2], the Specific activity (nM min-1 mg-1) was 13.8. `C[Se]C[C@H](N)C(=O)O`: in test [2], the Specific activity (nM min-1 mg-1) is 4.

In test [2], `Cc1ccc(C[Se]C[C@H](N)C(=O)O)cc1` registered a Specific activity (nM min-1 mg-1) of 4.9.
